# “Also recorded” adds a separate entry of the source.
# Tests used:
# [1] = target: T1, LY6K (Mus musculus, UniProt Q9CWP4); assay: Western blot of total LY6K level in 4T1 cells; type: cell-based; design: dose or concentration left out as unconfirmed; details: overnight
# T1 construct: endogenous in cells; host or cells: 4T1 mouse mammary tumor cells
# T1 sequence (Q9CWP4 21-123): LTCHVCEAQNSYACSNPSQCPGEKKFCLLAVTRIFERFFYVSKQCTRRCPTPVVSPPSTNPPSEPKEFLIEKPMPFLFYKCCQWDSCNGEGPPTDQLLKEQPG
# Protocol: 4T1 cells were treated with a concentration of 0.1 […] of Compound I overnight.
# [2] = system: LY6K; assay: LY6K membrane localization after short-term treatment; type: cell-based
# Source text: LY6K is expressed on lamellipodia on the cell membrane. […] It is contemplated that Compound I may disable LY6K signaling by its mislocalization form membrane where LY6K may promote TGFbeta, IFN-gamma signaling paways.
# [3] = system: E0771 tumors; assay: E0771 mammary tumor in syngeneic C57Bl/6 model, tumor growth and re-challenge; type: in vivo, C57BL6 mice
# Protocol: Treatment of E0771 tumors in a syngeneic C57Bl/6 model with compounds described herein reduced tumor growth, while combination treatment with the two small molecules completely eliminated tumor growth. The treatment was halted after tumor disappearance. Three weeks later, the cured mice were re-challenged with E0771 tumor cells, with complete, durable protection against tumor growth.
# In another study, syngeneic female C57BL6 mice were injected with mammary tumor cell line E0771 in the 4th mammary gland. After tumors were palpable, they were injected intra-peritoneal injection every 3rd day at 10 mg/kg. The tumor measurements were performed with caliper method. 5 out of 5 control mice continued to sustained tumor growth. […] The drug treatment was stopped after the resolve of the tumors. The cured mice (three out of five) were kept under observation for one month. These mice were re-challenged with E0771 tumor cell inoculation into mammary gland. A control naïve group of C57BL6 were simultaneous inoculated with same batch of E0771 tumor cells in to mammary gland. Tumor progression was monitored in both group. […] Tumor volume was measured in mm^3. Thus, Compound I treatment resolves tumor and induces anti-tumor immunity.
# [4] = system: 4T1 mammary cancer cells; assay: 4T1 cellular morphology and growth after 16 hours treatment; type: cell-based, mouse
# Protocol: 4T1 mammary cancer cells show lack of contact inhibited cell growth, i.e. the cells can grow on top of each other. 4T1 mammary cells were plated at the same cell density. Cells were serum starved overnight. They were supplemented with medium containing 10% serum with or without indicated doses of the Compound I for 16 hours.
# [5] = system: TGFβ1/Smad2/3 signaling; assay: Western blot of TGFβ1 induced phosphorylation of Smad2/3; type: cell-based; details: serum starved, TGFβ1 (10 ng/mL), 2 μM, 30 minutes
# Protocol: (§1) Cells were serum starved overnight and then treated with TGF 13 (10 ng/mL) or IFN γ (100 ng/mL) in the presence of 2 μM NSC243928 or NSC11150 for 30 minutes followed by protein analysis using western blot. […] NSC243928 inhibited the TGFβ1 induced phosphorylation of Smad2/3; NSC11150 had no effect on TGFβ1/Smad2/3 signaling. NSC11150 inhibited IFNγ induced phosphorylation of Stat1; NSC243928 had no effect on IFNγ/Stat1 signaling.
# [6] = system: MDA-MB-231 cells; assay: Cell-Titer-Blue assay, control vs LY6K knockdown MDA-MB-231 cells; type: cell-based; details: 2 μM, 24 h, listed as NSC243928
# Protocol: For cell death assay, cells were plated in a black walled 96-well plate and treated with the indicated concentration of drugs for 24 h. Cell-Titer-Blue reagent was added, and the Cytation 5 microplate reader (BioTek, Winooski, VT, USA) was used to measure fluorescence intensity (excitation 560(10) nm, emission 590(20) nm) according to manufacturer's instructions.
# To confirm the effect of NSC243928 in LY6K-expressing cells, it was observed the parental control and sh2 LY6K knockdown in MDA-MB-231 cells, a triple negative breast cancer cell line. These cells were generated as previously described. To test the effect of NSC243928 on cell growth, the cells were seeded into 96-well plates and treated with 2 μM of the compound for 24 h. A CTB assay was then performed according to manufacturer's instructions to determine the cell growth.
# as §1
# [7] = system: caspase 3; assay: Western blot of caspase 3 activation in 4T1 cells; type: cell-based, mouse; details: 0.1 μM, 1.0 μM or 5.0 μM, 16 hours
# Protocol: Cancer cells accumulate various mutations in their genome, yet they are protected against DNA damage induced apoptosis. Poly (ADP-ribose) polymerase (PARP) is a protein which facilitates DNA repair, genomic stability, and inhibits programmed cell death. PARP proteins are inactivated by cleavage of caspase 3 and caspase 7 in vivo. PARP inactivation cleavage and caspase activation by western blot was studied.
# 4T1 mammary cells were plated at the same cell density. Cells were serum starved overnight. They were supplemented with medium containing 10% serum with or without doses of Compound I (0.1 μM, 1.0 μM or 5.0 μM) and for 16 hours. Equal quantity of protein was loaded for western blot analysis.
# [8] = system: PD-L1; assay: PD-L1 measured in live cells after IFN γ treatment; type: cell-based; details: serum starved, 100 ng/ml IFN γ, 2 μM drug
# Protocol: Cells were serum starved and treated with 100 ng/ml IFN γ with 2 μM drugs. PD-L1 was measured in live cells (using a zombie live-dead stain). The graph was plotted from three experiments. A 7.9-fold decrease in the number of cells with high PD-L1 expression was observed.
# [9] = E0771, intra-peritoneal, every 3rd day, 10 mg/kg
smiles,measurement,setting,value
"CCS(=O)(=O)Nc1ccc(Nc2c3ccccc3nc3ccccc23)c(OC)c1 [Compound I, N-(4-(acridin-9-ylamino)-3-methoxyphenyl)ethanesulfonamide]",total level of LY6K,[1],dose response reduction
same,concentration at which loss of LY6K membrane localization was observed (as low as),[2],0.001 mM
same,localization of LY6K on the plasma membrane,"[2]; 0.001 mM, 15 min",translocation of LY6K from the plasma membrane
same,treated mice with complete resolve of mammary tumor,[3]; [9],3 out of 5
same,treated mice with partial response,[3]; [9],2 out of 5
same,cured mice that remained immune to tumor cells on re-challenge,[3]; re-challenged with E0771 after one month observation,Three out of three
same,cellular growth of 4T1 cells,[4]; 0.1 μM,inhibited the cellular growth
same,cellular growth of 4T1 cells,[4]; 1.0 μM,inhibited the cellular growth
same,cell density of 4T1 cells,[4]; 5.0 μM,reduced cell density
same,TGFβ1 induced phosphorylation of Smad2/3,[5],inhibited
same,cell death / cell growth in control MDA-MB-231 cells,[6]; control cells,induces cell death; also recorded: significant inhibitory effect; also recorded: diminished the growth
same,cell viability / activity in LY6K knockdown MDA-MB-231 cells,[6]; sh2 LY6K knockdown cells,increased cell viability; also recorded: inhibitory effect of NSC243928 is removed; also recorded: lost its activity
same,caspase 3 activation,[7],activated
same,inhibitory effect on cells with high expression of PD-L1,[8],does not have inhibitory effect

# — patent US12728126B2, “Compounds for inhibiting LY6K and methods of using same” (The Henry M. Jackson Foundation for the Advancement of …, priority 2020, dated 2026)
